Results taken from ChEMBL document CHEMBL1156521, “Three-dimensional structure of the EphB2 receptor in complex with an antagonistic peptide reveals a novel mode of inhibition” (J Biol Chem, 2007).
Residues, ends and D or L forms follow the SMILES beside them.

Target: T1, Ephrin type-B receptor 2 (Mus musculus, UniProt P54763)
T1 sequence (P54763 whole entry): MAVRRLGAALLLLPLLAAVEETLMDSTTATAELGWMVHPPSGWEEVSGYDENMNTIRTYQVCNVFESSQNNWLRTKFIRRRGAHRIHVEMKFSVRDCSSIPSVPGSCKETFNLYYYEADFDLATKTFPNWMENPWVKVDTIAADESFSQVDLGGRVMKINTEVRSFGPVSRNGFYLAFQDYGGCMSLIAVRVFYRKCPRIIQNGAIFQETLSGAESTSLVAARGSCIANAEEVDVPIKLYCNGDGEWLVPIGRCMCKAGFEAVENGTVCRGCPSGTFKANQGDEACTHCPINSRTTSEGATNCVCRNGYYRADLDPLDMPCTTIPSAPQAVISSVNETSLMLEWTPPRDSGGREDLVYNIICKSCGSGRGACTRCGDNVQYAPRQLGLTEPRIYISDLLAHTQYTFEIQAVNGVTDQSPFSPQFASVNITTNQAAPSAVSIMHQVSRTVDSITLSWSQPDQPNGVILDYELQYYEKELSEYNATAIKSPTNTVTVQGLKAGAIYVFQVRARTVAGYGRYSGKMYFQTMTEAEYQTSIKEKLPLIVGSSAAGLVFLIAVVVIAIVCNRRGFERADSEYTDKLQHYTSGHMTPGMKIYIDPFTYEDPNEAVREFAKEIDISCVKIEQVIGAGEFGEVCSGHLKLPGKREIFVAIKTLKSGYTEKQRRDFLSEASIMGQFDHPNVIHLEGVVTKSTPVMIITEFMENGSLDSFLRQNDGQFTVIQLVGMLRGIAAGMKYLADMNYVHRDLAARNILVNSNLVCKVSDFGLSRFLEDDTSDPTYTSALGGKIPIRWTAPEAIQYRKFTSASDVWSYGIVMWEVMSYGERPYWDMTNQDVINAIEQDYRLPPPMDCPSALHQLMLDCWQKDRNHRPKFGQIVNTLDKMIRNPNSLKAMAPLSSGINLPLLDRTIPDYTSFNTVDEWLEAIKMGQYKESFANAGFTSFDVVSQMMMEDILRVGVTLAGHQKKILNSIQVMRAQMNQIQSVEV
Test: Binding affinity at mouse EphB2 receptor by ELISA

How did the IC50 turn out when `CC[C@H](C)[C@H](NC(=O)[C@H](Cc1c[nH]c2ccccc12)NC(=O)[C@H](CCC(=O)O)NC(=O)[C@H](CC(N)=O)NC(=O)[C@@H](N)CO)C(=O)N[C@@H](CCC(N)=O)C(=O)N1CCC[C@H]1C(=O)N[C@@H](CCCNC(=N)N)C(=O)N[C@@H](CC(C)C)C(=O)N1CCC[C@H]1C(=O)N[C@@H](CCC(N)=O)C(=O)N[C@@H](Cc1cnc[nH]1)C(=O)O` was run?
Its IC50 is 15 µM.

Target: T2, Ephrin type-B receptor 2 (Homo sapiens, UniProt P29323)
T2 sequence (P29323 whole entry): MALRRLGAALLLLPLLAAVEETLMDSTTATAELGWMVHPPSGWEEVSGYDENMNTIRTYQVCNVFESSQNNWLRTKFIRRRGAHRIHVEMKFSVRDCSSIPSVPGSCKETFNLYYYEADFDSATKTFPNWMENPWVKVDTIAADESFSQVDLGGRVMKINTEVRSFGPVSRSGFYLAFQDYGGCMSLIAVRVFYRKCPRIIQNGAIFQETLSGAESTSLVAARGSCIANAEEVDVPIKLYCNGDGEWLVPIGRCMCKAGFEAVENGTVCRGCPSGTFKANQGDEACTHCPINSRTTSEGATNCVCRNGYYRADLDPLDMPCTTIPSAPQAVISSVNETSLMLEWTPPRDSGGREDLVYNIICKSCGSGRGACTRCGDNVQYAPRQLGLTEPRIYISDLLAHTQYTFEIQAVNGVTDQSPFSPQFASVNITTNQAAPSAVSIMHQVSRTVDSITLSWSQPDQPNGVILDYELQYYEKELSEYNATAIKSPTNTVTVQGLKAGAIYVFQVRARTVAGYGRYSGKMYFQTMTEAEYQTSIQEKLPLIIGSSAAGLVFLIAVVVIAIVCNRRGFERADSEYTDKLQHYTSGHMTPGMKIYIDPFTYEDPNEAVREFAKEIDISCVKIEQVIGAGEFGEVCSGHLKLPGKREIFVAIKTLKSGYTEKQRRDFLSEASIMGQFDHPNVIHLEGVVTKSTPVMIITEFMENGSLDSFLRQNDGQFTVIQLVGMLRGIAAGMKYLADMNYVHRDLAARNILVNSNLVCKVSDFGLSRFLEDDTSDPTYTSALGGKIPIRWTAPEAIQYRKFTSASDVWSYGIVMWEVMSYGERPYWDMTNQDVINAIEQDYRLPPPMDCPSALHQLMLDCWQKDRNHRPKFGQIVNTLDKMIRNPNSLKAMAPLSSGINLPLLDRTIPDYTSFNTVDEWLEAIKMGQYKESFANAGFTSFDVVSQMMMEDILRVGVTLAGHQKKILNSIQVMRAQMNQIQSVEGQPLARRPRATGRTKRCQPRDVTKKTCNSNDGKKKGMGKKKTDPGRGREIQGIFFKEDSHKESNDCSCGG
Test: Binding affinity at human EphB2 receptor by isothermal titration calorimetry

Which Kd does the source give for `CC[C@H](C)[C@H](NC(=O)[C@H](Cc1c[nH]c2ccccc12)NC(=O)[C@H](CCC(=O)O)NC(=O)[C@H](CC(N)=O)NC(=O)[C@@H](N)CO)C(=O)N[C@@H](CCC(N)=O)C(=O)N1CCC[C@H]1C(=O)N[C@@H](Cc1cnc[nH]1)C(=O)N[C@@H](CC(C)C)C(=O)N1CCC[C@H]1C(=O)N[C@@H](CCC(N)=O)C(=O)N[C@@H](Cc1cnc[nH]1)C(=O)O` (H-SNEWIQPHLPQH-OH) here?
Its Kd is over 50 µM.

With `CC[C@H](C)[C@H](NC(=O)[C@H](Cc1c[nH]c2ccccc12)NC(=O)[C@H](CCC(N)=O)NC(=O)[C@H](CC(N)=O)NC(=O)[C@@H](N)CO)C(=O)N[C@@H](CCC(N)=O)C(=O)N1CCC[C@H]1C(=O)N[C@@H](CCCN=C(N)N)C(=O)N[C@@H](CC(C)C)C(=O)N1CCC[C@H]1C(=O)N[C@@H](CCC(N)=O)C(=O)N[C@@H](Cc1cnc[nH]1)C(=O)O` (H-SNQWIQPRLPQH-OH) as the compound, how does the Kd read?
The Kd was over 50 µM.

With `CC[C@H](C)[C@H](NC(=O)[C@H](Cc1c[nH]c2ccccc12)NC(=O)[C@H](CCC(=O)O)NC(=O)[C@H](CC(N)=O)NC(=O)[C@@H](N)CO)C(=O)N[C@@H](CCC(N)=O)C(=O)N1CCC[C@H]1C(=O)N[C@@H](C)C(=O)N[C@@H](CC(C)C)C(=O)N1CCC[C@H]1C(=O)N[C@@H](CCC(N)=O)C(=O)N[C@@H](Cc1cnc[nH]1)C(=O)O` (H-SNEWIQPALPQH-OH) as the compound, how does the Kd read?
The Kd was over 50 µM.

With `CC[C@H](C)[C@H](NC(=O)[C@@H]1CCCN1C(=O)CNC(=O)[C@H](CC(N)=O)NC(=O)[C@@H]1CCCN1C(=O)[C@H](CO)NC(=O)[C@H](Cc1ccccc1)NC(=O)[C@H](CC(C)C)NC(=O)[C@H](Cc1ccc(O)cc1)NC(=O)[C@H](CC(N)=O)NC(=O)[C@@H](N)[C@H](C)O)C(=O)N[C@@H](C)C(=O)N[C@@H](CCCN=C(N)N)C(=O)N[C@@H](C)C(=O)N[C@@H](Cc1c[nH]c2ccccc12)C(=O)O` as the compound, how does the Kd read?
Its Kd is over 50 µM.

How did the Kd turn out when `CC[C@H](C)[C@H](NC(=O)[C@H](Cc1c[nH]c2ccccc12)NC(=O)[C@H](CCC(N)=O)NC(=O)[C@H](CC(N)=O)NC(=O)[C@@H](N)CO)C(=O)N[C@@H](CC(C)C)C(=O)N1CCC[C@H]1C(=O)N[C@@H](CCCN=C(N)N)C(=O)N[C@@H](CC(C)C)C(=O)N1CCC[C@H]1C(=O)N[C@@H](CCC(N)=O)C(=O)N[C@@H](Cc1cnc[nH]1)C(=O)O` (H-SNQWILPRLPQH-OH) was run?
The Kd was over 50 µM.

Which Kd does the source give for `CC[C@H](C)[C@H](NC(=O)[C@H](Cc1c[nH]c2ccccc12)NC(=O)[C@H](CCC(N)=O)NC(=O)[C@H](CC(N)=O)NC(=O)[C@@H](N)CO)C(=O)NCC(=O)N1CCC[C@H]1C(=O)N[C@@H](C)C(=O)N[C@@H](CC(C)C)C(=O)N1CCC[C@H]1C(=O)N[C@@H](CCC(N)=O)C(=O)N[C@@H](Cc1cnc[nH]1)C(=O)O` (H-SNQWIGPALPQH-OH) here?
Its Kd is over 50 µM.

With `CC[C@H](C)[C@H](NC(=O)[C@H](Cc1c[nH]c2ccccc12)NC(=O)[C@H](CCC(N)=O)NC(=O)[C@H](CC(N)=O)NC(=O)[C@@H](N)CO)C(=O)N[C@@H](CO)C(=O)N1CCC[C@H]1C(=O)N[C@@H](CCCNC(=N)N)C(=O)N[C@@H](CC(C)C)C(=O)N1CCC[C@H]1C(=O)N[C@@H](CCC(N)=O)C(=O)N[C@@H](Cc1cnc[nH]1)C(=O)O` (H-SNQWISPRLPQH-OH) as the compound, how does the Kd read?
The Kd was over 50 µM.
